pIC50: −log10 of the molar value.
target: human NaV subtype, like NaV 1.7 (Homo sapiens, UniProt Q15858); test: E-VIPR optical membrane potential assay with electrical stimulation; type: cell-based; conditions: active against one or more sodium channels; assay and NaV subtype not specified for Table 3; read-out: IC50 Binned Activity Data
From the text: Assays for Detecting and Measuring NaV Inhibition Properties of Compound E-VIPR Optical Membrane Potential Assay Method with Electrical Stimulation
Sodium channels are voltage-dependent proteins that can be activated by inducing membrane voltage changes by applying electric fields. The electrical stimulation instrument and methods of use are described in Ion Channel Assay Methods PCT/US01/21652, herein incorporated by reference and are referred to as E-VIPR. The instrument comprises a microtiter plate handler, an optical system for exciting the coumarin dye while simultaneously recording the coumarin and oxonol emissions, a waveform generator, a current- or voltage-controlled amplifier, and a device for inserting electrodes in well. Under integrated computer control, this instrument passes user-programmed electrical stimulus protocols to cells within the wells of the microtiter plate.
24 hours before the assay on E-VIPR, HEK cells expressing human NaV subtype, like NaV 1.7, are seeded in 384-well poly-lysine coated plates at 15,000-20,000 cells per well. Other subtypes are performed in an analogous mode in a cell line expressing the NaV of interest. HEK cells are grown in media (exact composition is specific to each cell type and NaV subtype) supplemented with 10% FBS (Fetal Bovine Serum, qualified; GibcoBRL #16140-071) and 1% Pen-Strep (Penicillin-Streptomycin; GibcoBRL #15140-122). Cells are grown in vented cap flasks, in 90% humidity and 10% CO2, to 100% confluence. They are usually split by trypsinization 1:10 or 1:20, depending on scheduling needs, and grown for 2-3 days before the next split.
100 mg/mL Pluronic F-127 (Sigma #P2443), in dry DMSO
Compound Plates: 384-well round bottom plate, e.g. Corning 384-well Polypropylene Round Bottom #3656
Cell Plates: 384-well tissue culture treated plate, e.g. Greiner #781091-1B
Bath1 buffer. Glucose 10 mM (1.8 g/L), Magnesium Chloride (Anhydrous), 1 mM (0.095 g/L), Calcium Chloride, 2 mM (0.222 g/L), HEPES 10 mM (2.38 g/L), Potassium Chloride, 4.5 mM (0.335 g/L), Sodium Chloride 160 mM (9.35 g/L).
Hexyl Dye Solution: Bath1 Buffer+0.5% β-cyclodextrin (make this prior to use, Sigma #C4767), 8 μM CC2-DMPE+2.5 μM DiSBAC6(3). To make the solution Add volume of 10% Pluronic F127 stock equal to volumes of CC2-DMPE+DiSBAC6(3). The order of preparation is first mix Pluronic and CC2-DMPE, then add DiSBAC6(3) while vortexing, then add Bath1+β-Cyclodextrin.
1) Pre-spot compounds (in neat DMSO) into compound plates. Vehicle control (neat DMSO), the positive control (20 mM DMSO stock tetracaine, 125 μM final in assay) and test compounds are added to each well at 160× desired final concentration in neat DMSO. Final compound plate volume will be 80 μL (80-fold intermediate dilution from 1 μL DMSO spot; 160-fold final dilution after transfer to cell plate). Final DMSO concentration for all wells in assay is 0.625%.
2) Prepare Hexyl Dye Solution.
3) Prepare cell plates. On the day of the assay, medium is aspirated and cells are washed three times with 100 μL of Bath1 Solution, maintaining 25 μL residual volume in each well.
4) Dispense 25 μL per well of Hexyl Dye Solution into cell plates. Incubate for 20-35 minutes at room temp or ambient conditions.
5) Dispense 80 μL per well of Bath1 into compound plates. Acid Yellow-17 (1 mM) is added and Potassium Chloride can be altered from 4.5 to 20 mM depending on the NaV subtype and assay sensitivity.
6) Wash cell plates three times with 100 μL per well of Bath1, leaving 25 μL of residual volume. Then transfer 25 uL per well from Compound Plates to Cell Plates. Incubate for 20-35 minutes at room temp/ambient condition
7) Read Plate on E-VIPR. Use the current-controlled amplifier to deliver stimulation wave pulses for typically 9 seconds and a scan rate of 400 Hz. A pre-stimulus recording is performed for 0.5 seconds to obtain the un-stimulated intensities baseline. […]

Sequence of human NaV subtype, like NaV 1.7 (Q15858 whole entry): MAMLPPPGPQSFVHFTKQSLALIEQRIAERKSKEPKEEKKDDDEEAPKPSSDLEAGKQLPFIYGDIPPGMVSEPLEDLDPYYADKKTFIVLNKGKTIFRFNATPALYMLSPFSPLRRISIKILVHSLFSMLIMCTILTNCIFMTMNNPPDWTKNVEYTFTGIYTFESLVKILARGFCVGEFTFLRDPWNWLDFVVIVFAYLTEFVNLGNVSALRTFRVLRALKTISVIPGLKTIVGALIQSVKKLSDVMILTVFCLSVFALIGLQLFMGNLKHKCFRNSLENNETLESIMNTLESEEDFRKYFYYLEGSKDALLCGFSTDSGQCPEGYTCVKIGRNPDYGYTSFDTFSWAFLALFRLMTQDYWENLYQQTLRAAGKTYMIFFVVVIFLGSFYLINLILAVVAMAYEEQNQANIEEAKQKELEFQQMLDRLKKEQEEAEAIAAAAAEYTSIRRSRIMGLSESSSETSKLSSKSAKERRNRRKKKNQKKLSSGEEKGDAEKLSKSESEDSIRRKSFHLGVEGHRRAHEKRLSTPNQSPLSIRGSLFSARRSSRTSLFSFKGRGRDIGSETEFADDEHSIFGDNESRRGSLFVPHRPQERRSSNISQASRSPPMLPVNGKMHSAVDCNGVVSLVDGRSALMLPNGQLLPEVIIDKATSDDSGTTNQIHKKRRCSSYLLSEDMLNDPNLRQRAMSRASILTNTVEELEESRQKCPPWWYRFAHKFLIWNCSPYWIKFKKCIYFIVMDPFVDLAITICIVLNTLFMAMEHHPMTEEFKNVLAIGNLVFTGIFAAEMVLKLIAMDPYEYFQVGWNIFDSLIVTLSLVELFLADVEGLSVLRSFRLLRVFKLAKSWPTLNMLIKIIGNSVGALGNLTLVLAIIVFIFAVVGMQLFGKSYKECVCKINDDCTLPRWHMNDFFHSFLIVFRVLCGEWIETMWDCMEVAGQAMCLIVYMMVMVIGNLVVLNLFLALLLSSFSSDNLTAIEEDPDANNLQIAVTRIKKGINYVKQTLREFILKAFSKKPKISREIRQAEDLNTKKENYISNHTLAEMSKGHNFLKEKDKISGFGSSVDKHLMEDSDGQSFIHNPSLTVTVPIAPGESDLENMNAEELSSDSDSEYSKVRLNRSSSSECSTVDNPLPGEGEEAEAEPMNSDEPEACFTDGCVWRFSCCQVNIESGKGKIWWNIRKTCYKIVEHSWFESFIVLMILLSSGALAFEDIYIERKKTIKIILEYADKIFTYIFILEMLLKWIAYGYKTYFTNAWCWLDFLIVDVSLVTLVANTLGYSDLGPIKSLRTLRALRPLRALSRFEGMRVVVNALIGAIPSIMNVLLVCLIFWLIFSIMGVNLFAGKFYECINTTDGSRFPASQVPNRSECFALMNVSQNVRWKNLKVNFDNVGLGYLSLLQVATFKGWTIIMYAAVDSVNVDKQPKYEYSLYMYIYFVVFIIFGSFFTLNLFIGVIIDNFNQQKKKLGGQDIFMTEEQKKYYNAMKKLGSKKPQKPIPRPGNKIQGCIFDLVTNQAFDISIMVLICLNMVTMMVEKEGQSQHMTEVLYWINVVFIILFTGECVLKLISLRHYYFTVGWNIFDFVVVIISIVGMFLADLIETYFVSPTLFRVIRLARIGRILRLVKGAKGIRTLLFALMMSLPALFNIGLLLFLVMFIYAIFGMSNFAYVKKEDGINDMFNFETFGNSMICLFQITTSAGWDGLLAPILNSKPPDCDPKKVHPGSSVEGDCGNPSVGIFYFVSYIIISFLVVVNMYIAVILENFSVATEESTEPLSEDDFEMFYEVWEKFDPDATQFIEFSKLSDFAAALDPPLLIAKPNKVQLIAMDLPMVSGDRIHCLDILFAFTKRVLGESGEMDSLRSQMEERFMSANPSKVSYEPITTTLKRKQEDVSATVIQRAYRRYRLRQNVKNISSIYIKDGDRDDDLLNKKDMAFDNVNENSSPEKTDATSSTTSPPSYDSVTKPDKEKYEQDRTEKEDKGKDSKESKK

Row | Structure (SMILES) | pIC50
1 | COc1cc(C(=O)N2CCC3(CC2)C[C@@H](OC(C)C)c2ccccc2O3)ccc1OCCCO [Compound 116] | 5.30 to 5.70
2 | COc1cc(C(=O)N2CCC3(CCc4ccccc4O3)CC2)ccc1OC(C)C [Compound 162] | 5.30 to 5.70
3 | CC(C)O[C@@H]1CC2(CCN(C(=O)c3ccc(S(=O)(=O)C(C)C)cc3)CC2)Oc2ccc(F)cc21 [Compound 68] | ≥ 5.70
4 | Cc1cc(C(=O)N2CCC3(CC2)C[C@@H](OC(C)C)c2cc(F)ccc2O3)ccc1OC1COC1 [Compound 92] | ≥ 5.70
5 | COc1cc(C(=O)N2CCC3(CC2)CC(NC(C)C)c2ccccc2O3)ccc1OC(C)C (stereo not shown) [Compound 47] | < 5.30
6 | COc1cc(C(=O)N2CCC3(CC2)C[C@@H](OC(C)C)c2cc(F)ccc2O3)ccc1OC(C)C [Compound 146] | ≥ 5.70
7 | CCOC1CC2(CCN(C(=O)c3ccc(OC(C)C)c(OC)c3)CC2)Oc2ccccc21 (stereo not shown) [Compound 12] | ≥ 5.70
8 | CC(C)Oc1ccc(C(=O)N2CCC3(CC2)C[C@@H](OC(C)C)c2ccccc2O3)cc1O [Compound 91] | ≥ 5.70
9 | CC(C)O[C@@H]1CC2(CCN(C(=O)c3ccc(C4(O)CCCC4)cc3)CC2)Oc2ccc(F)cc21 [Compound 49] | ≥ 5.70
10 | COc1cc(C(=O)N2CCC3(CC2)C[C@@H](OC(C)C)c2cc(F)ccc2O3)ccc1C(C)(C)CO [Compound 120] | ≥ 5.70
11 | Cc1cc(C(=O)N2CCC3(CC2)C[C@@H](OC(C)C)c2cc(F)ccc2O3)ccc1S(C)(=O)=O [Compound 156] | ≥ 5.70
12 | COc1cc(C(=O)N2CCC3(CC2)CC(OC(C)C)c2ccc(F)cc2O3)ccc1OC(C)C (stereo not shown) [Compound 25] | ≥ 5.70
13 | CC(C)O[C@@H]1CC2(CCN(C(=O)c3ccc(SC(C)C)cc3)CC2)Oc2ccc(F)cc21 [Compound 53] | ≥ 5.70
14 | CC(C)O[C@@H]1CC2(CCN(C(=O)c3ccc(N4CCN(S(C)(=O)=O)CC4)cn3)CC2)Oc2ccc(F)cc21 [Compound 17] | ≥ 5.70
15 | COc1cc(C(=O)N2CCC3(CC2)CC(OC(C)C)c2ccccc2O3)ccc1C(C)(C)CO (stereo not shown) [Compound 62] | ≥ 5.70
16 | COc1ccccc1C(=O)N1CCC2(CC1)CC(C(C)C)c1ccccc1O2 (stereo not shown) [Compound 40] | < 5.30
17 | CC(C)O[C@H]1CC2(CCN(C(=O)c3ccc4c(cnn4C)c3)CC2)Oc2ccccc21 [Compound 123] | 5.30 to 5.70
18 | COc1cc(C(=O)N2CCC3(CC2)CC(Oc2ccccc2C#N)c2ccccc2O3)ccc1OC(C)C (stereo not shown) [Compound 152] | ≥ 5.70
19 | COc1cc(C(=O)N2CCC3(CC2)CC(OCCS(C)(=O)=O)c2ccccc2O3)ccc1OC(C)C (stereo not shown) [Compound 86] | < 5.30
20 | COc1cc(C(=O)N2CCC3(CC2)CC(CSC)c2ccccc2O3)ccc1OC(C)C (stereo not shown) [Compound 83] | ≥ 5.70
21 | Cc1cc(C(F)F)n2ncc(C(=O)N3CCC4(CC3)C[C@H](OC(C)C)c3ccccc3O4)c2n1 [Compound 159] | ≥ 5.70
22 | CC(C)Oc1ccc(C(=O)N2CCC3(CC2)C[C@@H](OC(C)C)c2cc(F)ccc2O3)cc1CO [Compound 148] | ≥ 5.70
23 | Cc1cc(OC(C)C)ccc1C(=O)N1CCC2(CC1)C[C@@H](OC(C)C)c1ccccc1O2 [Compound 169] | ≥ 5.70
24 | CC(C)Oc1ccc(C(=O)N2CCC3(CC2)C[C@@H](OC(C)C)c2cc(F)ccc2O3)cc1CN(C)C [Compound 173] | ≥ 5.70
25 | CCS(=O)(=O)c1ccc(C(=O)N2CCC3(CC2)C[C@@H](OC(C)C)c2cc(F)ccc2O3)cc1C [Compound 9] | ≥ 5.70
26 | Cc1cc(C(=O)N2CCC3(CC2)C[C@@H](OC(C)C)c2cc(F)ccc2O3)ccc1S(=O)(=O)C(C)C [Compound 13] | ≥ 5.70

Row | Structure (SMILES) | pIC50
27 | CC(C)OC1CC2(CCN(C(=O)c3ccccc3OC(F)(F)F)CC2)Oc2ccccc21 (stereo not shown) [Compound 157] | ≥ 5.70
28 | COc1cc(C(=O)N2CCC3(CC2)C[C@@H](OC(C)C)c2ccccc2O3)ccc1OC(C)C [Compound 114] | ≥ 5.70
29 | CC(C)Oc1ccc(C(=O)N2CCC3(CC2)C[C@@H](OC(C)C)c2cc(F)ccc2O3)nc1 [Compound 139] | ≥ 5.70
30 | COc1ccc(C(=O)N2CCC3(CC2)C[C@@H](OC(C)C)c2ccccc2O3)cc1C [Compound 20] | ≥ 5.70
31 | COc1cc(C(=O)N2CCC3(CC2)C[C@@H](OC(C)C)c2cc(F)ccc2O3)ccc1OC(F)F [Compound 79] | ≥ 5.70
32 | CC(C)O[C@@H]1CC2(CCN(C(=O)c3ccc([S+]([O-])C(C)C)cc3)CC2)Oc2ccc(F)cc21 (stereo partly shown) [Compound 161] | ≥ 5.70
33 | CC(C)Oc1ccc(C(=O)N2CCC3(CC2)C[C@H](OC(C)C)c2ccccc2O3)cc1CO [Compound 42] | ≥ 5.70
34 | COc1cc(C(=O)N2CCC3(CC2)CC(OC(C)C)c2nn(C(C)(C)C)cc2O3)ccc1OC(C)C (stereo not shown) [Compound 34] | ≥ 5.70
35 | COc1cc(C(=O)N2CCC3(CC2)CC(OC2CC2)c2ccccc2O3)ccc1OC(C)C (stereo not shown) [Compound 127] | ≥ 5.70
36 | CC(C)O[C@@H]1CC2(CCN(C(=O)c3ccc(S(=O)(=O)C(C)C)cc3)CC2)Oc2c(F)cc(F)cc21 [Compound 153] | 5.30 to 5.70
37 | CC1CCN(c2ccc(C(=O)N3CCC4(CC3)C[C@@H](OC(C)C)c3cc(F)ccc3O4)nc2)CC1 [Compound 61] | ≥ 5.70
38 | CC(C)Oc1ccc(C(=O)N2CCC3(CC2)C[C@H](OC(C)C)c2ccccc2O3)cc1C#N [Compound 167] | ≥ 5.70
39 | CC(C)O[C@@H]1CC2(CCN(C(=O)c3ccc(N4CCCCC4C)cn3)CC2)Oc2ccc(F)cc21 (stereo partly shown) [Compound 54] | ≥ 5.70
40 | COc1cc(C(=O)N2CCC3(CC2)Oc2ccccc2CC3OC)ccc1OC(C)C (stereo not shown) [Compound 165] | ≥ 5.70
41 | CC(C)O[C@H]1CC2(CCN(C(=O)c3ccc(C(C)(C)O)c(F)c3)CC2)Oc2cc(F)ccc21 [Compound 154] | ≥ 5.70
42 | CC[C@H](C)Nc1ccc(C(=O)N2CCC3(CC2)C[C@@H](OC(C)C)c2cc(F)ccc2O3)nc1 [Compound 64] | ≥ 5.70
43 | Cc1cc(C(F)F)n2ncc(C(=O)N3CCC4(CC3)C[C@@H](OC(C)C)c3ccccc3O4)c2n1 [Compound 87] | ≥ 5.70
44 | COc1cc(C(=O)N2CCC3(CC2)C[C@H](OC(C)C)c2ccccc2O3)ccc1C(C)(C)CO [Compound 71] | ≥ 5.70
45 | CC(C)Oc1ccc(C(=O)N2CCC3(CC2)C[C@@H](OC(C)C)c2cc(F)ccc2O3)cc1CN [Compound 8] | < 5.30
46 | CCN(CC)CCOC1CC2(CCN(C(=O)c3ccc(OC(C)C)c(OC)c3)CC2)Oc2ccccc21 (stereo not shown) [Compound 38] | < 5.30
47 | CC(C)O[C@@H]1CC2(CCN(C(=O)c3ccc(N4CCC[C@@H]4C)cn3)CC2)Oc2ccc(F)cc21 [Compound 67] | ≥ 5.70
48 | Cc1cc(C(=O)N2CCC3(CC2)C[C@H](O)c2cc(F)ccc2O3)ccc1OC(C)C [Compound 77] | ≥ 5.70
49 | COc1cc(C(=O)N2CCC3(CC2)C[C@@H](OC(C)C)c2ccccc2O3)ccc1O [Compound 136] | ≥ 5.70
50 | CC(C)Oc1ccc(C(=O)N2CCC3(CC2)C[C@@H](OC(C)C)c2cc(F)ccc2O3)cc1C#N [Compound 164] | ≥ 5.70
51 | COc1cc(O)ccc1C(=O)N1CCC2(CC1)C[C@@H](OC(C)C)c1ccccc1O2 [Compound 170] | ≥ 5.70
52 | Cc1cc(C(=O)N2CCC3(CC2)C[C@@H](O)c2cc(F)ccc2O3)ccc1C(C)(C)O [Compound 134] | ≥ 5.70

— patent publication US10385070B2, “Chroman-spirocyclic piperidine amides as modulators of ion channels” (VERTEX PHARMACEUTICALS INCORPORATED, priority 2011, dated 2019)
